Test results from the METLIN SMRT retention time set (Domingo-Almenara et al. 2019).

Assay: gradient 5% acetonitrile 3 min, to 50% in 2 min, to 85% in 15 min, held 3 min, 100 µL/min
Details: column: Zorbax Extend-C18 2.1 x 50 mm; eluents: water / acetonitrile, 0.1% formic acid
Procedure, shortened: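 Pure standards were analyzed in mixtures of ~100 molecules using HPLC coupled to a quadrupole time-of-flight mass spectrometer, in both positive and negative ionization mode. Separation used a Zorbax Extend-C18 column (2.1 × 50 mm, 1.8 μm) at 100 μL/min, with water and acetonitrile each containing 0.1% formic acid. Dead and dwell volumes were 40 μL and 900 μL, and data were collected over 3 months. Retention time was read from computationally picked adduct peaks, each inspected manually.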

Compound | RP-LC retention time
COCCNC(=O)C1CCCN(c2cnc3nc(C)c(C)nc3c2)C1 (configuration not stated) | 602 s
O=C(NCCc1c[nH]c2ccccc12)c1nc[nH]c1C(=O)NCc1ccccn1 | 641 s
CCc1ccc(S(=O)(=O)Nc2ccc3nc(N4CCN(CC)CC4)cc(C(=O)O)c3c2)cc1 | 610 s
Cc1cc(S(=O)(=O)N2C[C@@H](F)C[C@H]2C(=O)N2CCc3ccccc3C2)ccc1Cl | 1020 s
O=C(Nc1ccc(F)cc1Cl)c1cnc(-c2ccc(F)cc2)nc1-c1ccncc1 | 951 s
CN1C(=O)NC2NCN(C)C2C1=O (configuration not stated) | 576 s
O=C(NCc1cc(F)ccc1F)C1CCCN(c2cnc3nccnc3c2)C1 (configuration not stated) | 715 s
Cc1ccc(NC(=O)C2CCN(S(=O)(=O)c3cn(C)cn3)CC2)cc1 | 701 s
O=C(Nc1ccccc1)N1CCC2(CC1)N(C1CCCC1)C(=O)CS2=O (configuration not stated) | 692 s
COCCNC(=O)c1ccccc1-c1ocnc1C(=O)OC(C)C | 676 s
CC1(C(=O)NC2CCCCCCC2)CN(S(C)(=O)=O)CC(=O)N1c1cccc(F)c1 (configuration not stated) | 919 s
O=C(Nc1ccccc1)c1cc(C2CC2)on1 | 912 s
Cc1nc(-c2csc(S(=O)(=O)N3CCC(C(=O)NCc4ccc5c(c4)OCO5)CC3)c2)no1 | 832 s
CCN(CC)CCCC(C)Nc1cc(Cl)cc2nc3ccc(OC)cc3cc12 (configuration not stated) | 609 s
CS(=O)(=O)N1CCC(C(=O)Nc2nnc(SCc3cc(F)ccc3F)s2)CC1 | 762 s
Cc1cc(C)c2sc(N(Cc3cccnc3)C(=O)c3snnc3C)nc2c1 | 823 s
Cn1cnc(S(=O)(=O)N2[C@H]3CC[C@@H]2c2cnc(-c4ccccc4)nc2C3)c1 | 763 s
CCc1nnc2c(=O)n(CC(=O)NCc3cccc(F)c3)c3cccnc3n12 | 710 s
CON=C(C(=O)NC1C(=O)N2C(C(=O)O)=C(CSc3nc(C)c(CC(=O)O)s3)CSC12)c1csc(N)n1 (configuration not stated) | 629 s

Compound | RP-LC retention time
CC(=O)Nc1ccc(SCCCC(=O)Nc2cccc(C)n2)nn1 | 562 s
Cc1cc(C(F)(F)F)nn1CC(=O)NCC12CCC=C1N(C)C(=O)CC2 (configuration not stated) | 739 s
COc1ccc(C(=O)N2C[C@@H]3C[C@H]2C[C@@H]3NC(=O)c2cccs2)c(C)c1 | 741 s
O=C(NCCc1c[nH]c2ccc(Cl)cc12)c1cc(-c2cccnc2)nc2ccccc12 | 805 s
COCCn1ccc2nc(C)c(C(=O)Nc3ccc4c(c3)OCO4)cc2c1=O | 666 s
Cc1ccccc1Cn1c(CN2CCC(C(=O)NCc3cccs3)CC2)cc2ccccc21 | 790 s
Cc1ccc(NC(=O)N2CCCC(Cn3cnc4cccnc43)C2)cc1Cl (configuration not stated) | 747 s
Cc1ccc(C(=O)NC2CCCCCC2)cc1NC(=O)C1=CSCCO1 | 892 s
CC(C)c1cccc(NC(=O)Cn2ncc3c(N4CCN(c5ccccn5)CC4)ncnc32)c1 | 570 s
O=S(=O)(c1ccccc1F)N1CCC(Nc2cccnc2)C1 (configuration not stated) | 716 s
CCOc1ccc(S(=O)(=O)N2CCCC2C(=O)Nc2nnc(CC)s2)cc1 (configuration not stated) | 805 s
CCCn1cc(CCNC(=O)Nc2cccc(Br)c2)c2cccnc21 | 865 s
CCn1c(C(=O)NCc2ccc(F)cc2)cc2sc(Cl)cc21 | 1140 s
CC(=O)Nc1nc2ccc(CC(=O)Nc3cccc(Cl)c3)cc2s1 | 790 s
COC(=O)c1ccc(Cl)cc1NC(=O)NCCc1cn(C)c2ncccc12 | 845 s
Cc1ccc(N2CC(c3noc(-c4ccc(OC(F)(F)F)cc4)n3)CC2=O)cc1 (configuration not stated) | 1170 s
Clc1cc(Cl)cc(-c2ccc(CNCc3ccncc3)o2)c1 | 649 s
CCn1cc(C(=O)Nc2ccc(F)cc2)c2cccnc21 | 824 s
